Target: T1, Lysyl oxidase homolog 2 (Homo sapiens, UniProt Q9Y4K0)
T1 sequence (Q9Y4K0 whole entry): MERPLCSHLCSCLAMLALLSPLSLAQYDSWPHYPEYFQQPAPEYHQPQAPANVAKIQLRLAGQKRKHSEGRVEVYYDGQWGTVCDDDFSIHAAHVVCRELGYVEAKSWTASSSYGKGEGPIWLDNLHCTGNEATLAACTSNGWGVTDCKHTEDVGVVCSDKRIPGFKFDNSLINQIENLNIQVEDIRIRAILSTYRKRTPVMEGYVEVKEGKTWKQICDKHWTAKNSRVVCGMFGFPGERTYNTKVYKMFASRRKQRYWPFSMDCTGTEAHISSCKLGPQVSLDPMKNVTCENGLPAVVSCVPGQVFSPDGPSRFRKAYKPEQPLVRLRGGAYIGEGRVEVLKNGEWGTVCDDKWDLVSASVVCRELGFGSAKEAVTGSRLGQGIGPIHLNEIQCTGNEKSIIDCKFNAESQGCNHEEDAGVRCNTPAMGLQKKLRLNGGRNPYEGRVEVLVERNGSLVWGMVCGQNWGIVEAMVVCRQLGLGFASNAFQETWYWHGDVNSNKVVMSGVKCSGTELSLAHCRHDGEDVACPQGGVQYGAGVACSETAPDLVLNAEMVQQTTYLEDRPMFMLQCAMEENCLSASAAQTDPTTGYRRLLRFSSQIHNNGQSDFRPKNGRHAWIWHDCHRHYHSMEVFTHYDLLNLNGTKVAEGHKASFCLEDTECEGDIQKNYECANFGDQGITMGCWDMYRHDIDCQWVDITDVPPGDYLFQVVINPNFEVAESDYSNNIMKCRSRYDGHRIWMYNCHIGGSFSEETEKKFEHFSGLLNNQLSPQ
Test: Human LOXL2 Amine Oxidase Activity Assay: LOXL2 amine oxidase activity is evaluated by measuring Amplex Red fluorescence using 10-20× concentrated conditioned media from CHO cells stably expressing human LOXL2. To assay for amine oxidase activity, 10 μL of the concentrated conditioned media is incubated with 2 μL of test compound in DMSO and 73 μL Assay Buffer (50 mM Borate Buffer, pH8) for 2 h at 37° C. After the 2 h incubation, 5 μl of 10 mM 1,5-Diaminopentane (DAP) diluted in Assay Buffer and 10 μl of Amplex Red Mix (8.5 μl Assay Buffer+0.5 μl of 10 mM Amplex Red+1 μl of 500 U/ml Horseradish Peroxidase) are added and the plate mixed and immediately placed on the FlexStaion for fluorescence measurements. Fluorescence is read in kinetic mode every 2 min for 1 hour at excitation=544 and emission=590. The amine oxidase activity is calculated from the slope of the linear portion of the curve

| IC50 | Compound |
| --- | --- |
| < 300 nM | CCN1CCN(Cc2ccc(CNC(=O)c3cccc(Oc4cc(CN)ccn4)c3)cc2)CC1 |
| < 300 nM | NCc1ccnc(C(=O)NCc2ccccc2)c1 |
